# In patent publication US20250255929A1, “METHODS FOR REDUCING RISKS ASSOCIATED WITH HEART FAILURE AND FACTORS ASSOCIATED THEREWITH” (Stealth BioTherapeutics Inc., priority 2012, published 2025):
# Where “and” joins values, the source holds several entries; their conditions need not be identical. Identical values can stand only once. Square brackets hold non-standard residues; d marks the D form. Ends that are not written are not given here. Dmt = Cc1cc(O)cc(C)c1C[C@H](N)C(=O)O
# Key:
# Type in all cases: in vivo
# C-reactive protein = assay: Plasma C-reactive protein (canine ELISA) in dog model of heart failure; parameters: C-reactive protein concentration, BL, Mean / C-reactive protein concentration, 12 Wk, Mean / C-reactive protein concentration, BL / C-reactive protein concentration, 6 Wk / C-reactive protein concentration, 12 Wk: unit not given here; settings: for plasma CRP levels (FIG. 1), in words: HF dogs
# Description: Heart failure was induced in dogs via multiple sequential intracoronary microembolizations as described in Sabbah, et al., Am J Physiol. (1991) 260:H1379-84, herein incorporated by reference in its entirety.
# Half the dogs were subsequently treated with the mitochondrial peptide; the other half were treated with drug vehicle and served as controls. Peptide treatment was started upon induction of heart failure (HF), defined as left ventricular ejection fraction of approximately 30%. Peripheral venous blood samples were obtained from all dogs at the following time points: 1) when the dogs were normal (baseline, prior to the induction of heart failure); 2) when the dogs were induced into heart failure; 3) at 6 weeks after initiating therapy with the mitochondrial peptide or vehicle (HF+peptide, or HF+vehicle) both administered once daily as subcutaneous injections; and 4) at 12 weeks after initiating therapy with the mitochondrial peptide or vehicle. The daily dose of the peptide was 0.5 mg/kg/day administered […]. Blood samples were drawn on EDTA anticoagulant and were centrifuged at 2,500 RPM and the plasma extracted, aliquoted in 1 ml volumes into crystat tubes and stored at −70° C. until assayed. Once the follow-up was completed in all dogs, the plasma samples were thawed to room temperature and CRP was assayed using a canine specific ELISA kit (ALPCO: Cat #41-CRPCA-E01). The calorimetric method was used to assess the amount of CRP in plasma. CRP concentration was expressed as […].
# NT-pro BNP = assay: Plasma NT-pro BNP (double antibody sandwich ELISA) in dog model of heart failure; settings: for plasma NT-pro BNP levels (FIG. 5), in words: HF dogs
# Description: Heart failure was induced in dogs via multiple sequential intracoronary microembolizations as described in Sabbah, et al., Am J Physiol. (1991) 260:H1379-84, herein incorporated by reference in its entirety and summarized in Example 1.
# Heart failure was induced as described in Example 1. […] Half the dogs were treated with the peptide; the other half were treated with drug vehicle and served as controls. Peptide treatment was started upon induction of heart failure (HF), defined as left ventricular ejection fraction of approximately 30%. The daily dose of the peptide was 0.5 mg/kg/day administered intravenously. Blood samples were drawn on EDTA anticoagulant and were centrifuged at 2,500 RPM and the plasma extracted, aliquoted in 1 ml volumes into crystat tubes and stored at −70° C. until assayed. Once the follow-up was completed in all dogs, the plasma samples were thawed to room temperature and NT-pro BNP was assayed.
# Nt-pro BNP (pg/ml) was determined in EDTA-plasma on the principle of the double antibody sandwich Enzyme-linked immunosorbent assay (ELISA). The assay was performed based upon the instructions came along with the assay kit (NT-pro BNP, Kamiya Biomedical Company, Cat #KT-23770). Using standard curves with the help of Software (MasterPlex-2010), the concentration of each biomarker was determined.
# [1] = test system: reactive oxygen species (ROS); assay: Plasma ROS (luminol chemiluminescence) in dog model of heart failure; settings: for plasma ROS levels (FIG. 2), in words: HF dogs
# Description: Heart failure was induced as described in Example 1. […] Half the dogs were treated with the peptide; the other half were treated with drug vehicle and served as controls. Peptide treatment was started upon induction of heart failure (HF), defined as left ventricular ejection fraction of approximately 30%. The daily dose of the peptide was 0.5 mg/kg/day administered intravenously. Blood samples were drawn on EDTA anticoagulant and were centrifuged at 2,500 RPM and the plasma extracted, aliquoted in 1 ml volumes into crystat tubes and stored at −70° C. until assayed. Once the follow-up was completed in all dogs, the plasma samples were thawed to room temperature and ROS was assayed. To assess ROS levels in the plasma, luminol (5-amino-2,3 dihydro-1,4 phtalazindione) was added to the samples. ROS levels were then assessed by chemiluminescence activity.
# [2] = plasma, individual HF dogs, 6 weeks after initiating therapy, 0.5 mg/kg/day
# [3] = plasma, individual HF dogs, 12 weeks after initiating therapy, 0.5 mg/kg/day
# [4] = plasma, peptide group, individual dogs, heart failure prior to initiating therapy
substance,measurement,setting,value
"D-Arg-2′,6′-Dmt-Lys-Phe-NH2 ([dR][Dmt]KF-NH2) [aromatic-cationic peptide]","plasma CRP levels (FIG. 1), in words",C-reactive protein; treatment for 12 weeks,normal or near normal levels
same,"plasma CRP levels (FIG. 1), in words",C-reactive protein; treatment for six weeks,reduced CRP levels
same,"C-reactive protein concentration, 6 Wk",C-reactive protein; [2],1.12
same,"C-reactive protein concentration, 12 Wk, Mean","C-reactive protein; plasma, mean of 3 HF dogs, 12 weeks after initiating therapy, 0.5 mg/kg/day",1.42
same,"C-reactive protein concentration, BL, Mean","C-reactive protein; plasma, peptide group mean (3 dogs), baseline, prior to induction of heart failure (before treatment)",1.82
same,"plasma NT-pro BNP levels (FIG. 5), in words",NT-pro BNP; treatment for 12 weeks,normal or near normal levels
same,"plasma NT-pro BNP levels (FIG. 5), in words",NT-pro BNP; treatment for six weeks,reduced NT-pro BNP levels
same,"NT-pro BNP, 6Wk, AVG","NT-pro BNP; plasma, average of 7 HF dogs, 6 weeks after initiating therapy, 0.5 mg/kg/day",667 pg/mL
same,"NT-pro BNP, 12 Wk, AVG","NT-pro BNP; plasma, average of 7 HF dogs, 12 weeks after initiating therapy, 0.5 mg/kg/day",354 pg/mL
same,"NT-pro BNP, 6Wk",NT-pro BNP; [2],695 pg/ml (2×) and 559 pg/ml and 796 pg/ml and 680 pg/ml and 593 pg/ml and 654 pg/ml
same,"NT-pro BNP, 12 Wk",NT-pro BNP; [3],299 pg/mL and 422 pg/mL and 234 pg/mL and 294 pg/mL and 417 pg/mL and 393 pg/mL and 423 pg/mL
same,"NT-pro BNP, BL, AVG","NT-pro BNP; plasma, peptide group average (7 dogs), baseline before heart failure (before treatment)",278 pg/mL
same,"NT-pro BNP, Pre, AVG","NT-pro BNP; plasma, peptide group average (7 dogs), heart failure prior to initiating therapy",1128 pg/mL
same,"NT-pro BNP, BL","NT-pro BNP; plasma, peptide group, individual dogs, baseline before heart failure (before treatment)",257 pg/mL and 203 pg/mL and 271 pg/mL and 320 pg/mL and 289 pg/mL and 265 pg/mL and 346 pg/mL
same,"NT-pro BNP, Pre",NT-pro BNP; [4],1512 pg/mL and 1223 pg/mL and 1078 pg/mL and 1034 pg/mL and 1018 pg/mL and 1090 pg/mL and 941 pg/mL
same,"plasma ROS levels (FIG. 2), in words",[1]; treatment for 12 weeks,near normal levels
same,"plasma ROS levels (FIG. 2), in words",[1]; treatment for six weeks,reduced ROS levels
same,"Reactive oxygen species concentration, 6 Wk",[1]; [2],18.4 RLU×10^5/ml and 16.6 RLU×10^5/ml and 15.1 RLU×10^5/ml and 23.3 RLU×10^5/ml
same,"Reactive oxygen species concentration, 12 Wk",[1]; [3],12.4 RLU×10^5/ml (2×) and 8.3 RLU×10^5/ml and 9.0 RLU×10^5/ml and 10.5 RLU×10^5/ml
same,"Reactive oxygen species concentration, 12 Wk, Mean","[1]; plasma, mean of 5 HF dogs, 12 weeks after initiating therapy, 0.5 mg/kg/day",10.5 RLU×10^5/ml
same,"Reactive oxygen species concentration, 6 Wk, Mean","[1]; plasma, mean of HF dogs, 6 weeks after initiating therapy, 0.5 mg/kg/day",18.4 RLU×10^5/ml
same,"Reactive oxygen species concentration, BL, Mean","[1]; plasma, peptide group mean (5 dogs), baseline (before HF and treatment)",5.3 RLU×10^5/ml
same,"Reactive oxygen species concentration, PRE, Mean","[1]; plasma, peptide group mean, heart failure prior to initiating therapy",20.7 RLU×10^5/ml
same,"Reactive oxygen species concentration, BL","[1]; plasma, peptide group, individual dogs, baseline (before HF and treatment)",5.5 RLU×10^5/ml and 3.9 RLU×10^5/ml and 6.8 RLU×10^5/ml and 5.7 RLU×10^5/ml and 4.7 RLU×10^5/ml
same,"Reactive oxygen species concentration, PRE",[1]; [4],23.6 RLU×10^5/ml and 18.5 RLU×10^5/ml and 14.6 RLU×10^5/ml and 26.0 RLU×10^5/ml
